Assay results: paper PMC8949187, “Study of Structure–Activity Relationships of the Marine Alkaloid Fascaplysin and Its Derivatives as Potent Anticancer Agents” (Marine Drugs, 2022)

Legend:
[1] = test system: PNT2 cells; assay: MTT assay, PNT2 cells; type: cell-based, human; settings: Homo sapiens, PNT2; non-cancer cells; 48 h of treatment; mean ± SD
Experimental: (§1) The human prostate cancer cell lines PC-3, DU145, 22Rv1 and LNCaP, as well as human prostate non-cancer cell line PNT2 were purchased from ATCC (Manassas, VA, USA). HEK 293T (human embryonic kidney cells) and MRC-9 (human fibroblast cells) cell lines were purchased from ECACC (Salisbury, UK). […] Authentication of all cell lines used was recently performed by a commercial service (Multiplexion GmbH, Heidelberg, Germany).
(§2) Cells were cultured as monolayers at 37 °C in a humidified atmosphere with 5% (v/v) CO2 in the correspondent culture medium: 10% FBS/RPMI medium (RPMI medium supplemented with Glutamax^TM-I (gibco® Life technologies^TM, Paisley, UK) containing 10% fetal bovine serum (FBS, gibco® Life technologies^TM) and 1% penicillin/streptomycin (Invitrogen)) for PNT2, LNCaP, 22Rv1, PC-3 and DU145 and cells; 10% FBS/DMEM medium (DMEM medium supplemented with Glutamax^TM-I (gibco® Life technologies^TM) containing 10% FBS and 1% penicillin/streptomycin (gibco® Life technologies^TM)) for MRC-9 and HEK 293 cells. Cells were continuously kept in culture for a maximum of 3 months, and were regularly checked for stable phenotype and mycoplasma infection.
(§3) Effect of the drugs on cell viability in terms of metabolic activity was assessed by MTT assay, as previously reported. Cells were pre-incubated overnight in 96-well plates (6 × 10^3 cells/well in 100 μL/well) in the correspondent culture media. Then, the medium was replaced with fresh 10% FBS/RPMI medium containing the investigated compounds (100 μL/well), and cells were incubated for 48 h, unless otherwise stated. Next, 10 μL/well of (3-(4,5-dimethylthiazol-2-yl)-2,5-diphenyltetrazolium bromide) reagent (MTT, 5 mg/mL) was added. After 2–4 h of incubation, the media was aspirated and the plates were dried. Then, 50 μL/well of DMSO was added to each well and the cell viability was measured using an Infinite F200PRO reader (TECAN, Männedorf, Switzerland). Results were calculated using the GraphPad Prism software v.9.1.1 (GraphPad Software, San Diego, CA, USA) and are represented as IC50 of the compounds calculated using the cells treated with the solvent alone as a control.

[2] = test system: double-stranded calf thymus DNA; assay: Thiazole orange displacement (DNA intercalation) assay; type: binding; settings: 1 µM calf thymus DNA base pairs, 2 µM thiazole orange; 7 min at room temperature; mean ± SD
Experimental: DNA intercalation activity of the compounds was calculated as an ability to displace thiazole orange (TO) from the double-stranded DNA. For this experiment, a mixture (100 µL) containing 1 µM of double-stranded calf thymus DNA (recalculated as a concentration of base pairs) and 2 µM of thiazole orange (TO) solved in water was prepared. Then, the investigated compounds were added up to final concentrations of 0.39–25 µM; DMSO concentration in the samples was <0.02%. Propidium iodide (PI, positive control) was added up to final concentrations of 0.039–2.5 uM. After 7 min of incubation at room temperature, TO fluorescence was monitored using a multimodal plate reader TECAN Spark (Tecan Group Ltd., Männedorf Switzerland) at the excitation λ = 480 nm; fluorescence was recorded at λ = 530 nm. The bandwidth was 10 nm. The concentration of the drug that caused a decrease in TO fluorescence by 50% (EC50) was determined by approximating the experimental data using a non-linear regression algorithm and calculated using the GraphPad Prism software v.9.1.1 (GraphPad Software, San Diego, CA, USA).

[3] = test system: 22Rv1 cells; assay: Trypan blue-based viability assay; type: cell-based, human; settings: Homo sapiens, 48 h of treatment, mean ± SD, read-out: IC50, trypan blue staining assay
Experimental: The effect of the drugs on cell viability in terms of cellular membrane integrity was evaluated by the trypan blue exclusion assay as described before. In brief, cells (0.2 × 10^6 cells/well) were seeded in 6-well plates and incubated overnight, and the media was replaced with fresh media (1 mL/well) containing drugs at indicated concentrations. After treatment for 48 h, the cells were harvested by trypsinization, stained with trypan blue and the viability was measured using an automatic Beckman Coulter Vi-CELL (Beckman Coulter, Krefeld, Germany). Trypan blue-positive cells were assumed to have damaged cellular membrane (i.e., dead), whereas trypan blue-negative cells were considered to have an intact cellular membrane (i.e., alive).

[4] = test system: prostate cancer cell lines (PC-3, 22Rv1, DU145 and LNCaP); assay: MTT assay, mean over four prostate cancer cell lines; type: cell-based; settings: Homo sapiens; mean of MTT IC50 in PC-3, 22Rv1, DU145 and LNCaP; from Table S1 values; read-out: mean IC50 in cancer cells
Experimental: as §3, with “Next, SAR analysis was performed to identify the structural elements that are beneficial for anticancer activity of the fascaplysin-related molecules. Considering the complex and heterogeneous nature of tumors even within the same patient, we used calculated mean IC50 values of each drug in all prostate cancer cells for further analysis (Figure 2A). To identify the drug candidates with the highest therapeutic potential, the selectivity index (SI) was calculated as mean IC50 in non-cancer cells versus mean IC50 in cancer cells (Figure 2B), or as a mean IC50 in non-cancer (MRC-9 and HEK293) cells versus mean IC50 in prostate cells (cancer PC-3, 22Rv1, DU145, LNCaP and non-cancer PNT2 cells) (Figure 2C). Finally, to estimate the effects on cellular metabolism, we compared the activity evaluated by using trypan blue assay versus MTT assay (Figure 2D). Effect” for “Effect”, “2-4” for “2–4”, “F200PRO” left out

[5] = test system: DU145 cells; assay: MTT assay, DU145 cells; type: cell-based, human; settings: Homo sapiens, DU-145; prostate cancer cells; 48 h of treatment; mean ± SD
Experimental: as §1, §2, §3

[6] = test system: 22Rv1 cells; assay: MTT assay, 22Rv1 cells; type: cell-based, human; settings: Homo sapiens, 22Rv1; prostate cancer cells; 48 h of treatment; mean ± SD
Experimental: as §1, §2, §3

[7] = test system: PC-3 cells; assay: MTT assay, PC-3 cells; type: cell-based, human; settings: Homo sapiens, PC-3; prostate cancer cells; 48 h of treatment; mean ± SD
Experimental: as §1, §2, §3

[8] = test system: HEK-293 cells; assay: MTT assay, HEK-293 cells; type: cell-based, human; settings: Homo sapiens, HEK293; non-cancer cells; 48 h of treatment; mean ± SD
Experimental: as §1, §2, §3

[9] = test system: MRC-9 cells; assay: MTT assay, MRC-9 cells; type: cell-based, human; settings: Homo sapiens, MRC9; non-cancer cells; 48 h of treatment; mean ± SD
Experimental: as §1, §2, §3

[10] = test system: non-cancer cell lines versus cancer cell lines; assay: Selectivity index from MTT IC50s; type: cell-based, human; settings: MTT; for Selectivity index, IC50 (non-prostate) / IC50 (prostate): mean IC50 MRC-9 and HEK-293 versus mean IC50 prostate cancer cell lines plus PNT2; for Selectivity index, IC50 (non-cancer) / IC50 (cancer): mean IC50 non-cancer cell lines versus mean IC50 cancer cell lines
Experimental: as §3, with “Next, SAR analysis was performed to identify the structural elements that are beneficial for anticancer activity of the fascaplysin-related molecules. Considering the complex and heterogeneous nature of tumors even within the same patient, we used calculated mean IC50 values of each drug in all prostate cancer cells for further analysis (Figure 2A). To identify the drug candidates with the highest therapeutic potential, the selectivity index (SI) was calculated as mean IC50 in non-cancer cells versus mean IC50 in cancer cells (Figure 2B), or as a mean IC50 in non-cancer (MRC-9 and HEK293) cells versus mean IC50 in prostate cells (cancer PC-3, 22Rv1, DU145, LNCaP and non-cancer PNT2 cells) (Figure 2C). Finally, to estimate the effects on cellular metabolism, we compared the activity evaluated by using trypan blue assay versus MTT assay (Figure 2D). Effect” for “Effect”, “2-4” for “2–4”, “F200PRO” left out

[11] = test system: 22Rv1 cells; assay: DNA fragmentation (apoptosis, sub-G1), flow cytometry with PI staining; type: cell-based, human; settings: treated at IC50 (MTT assay) for 48 h, mean ± SD
Experimental: The effects on cell cycle progression and DNA fragmentation were analyzed by flow cytometry using PI staining, as described before. Cells (2 × 10^5 cells/well) were pre-incubated overnight in 6-well plates and then treated with the investigated drugs in fresh culture media (2 mL/well) for 48 h. Cells were harvested by trypsinization, fixed in 70% EtOH, stained with PI solution and analyzed by FACS Calibur (BD Bioscience, San Jose, CA, USA). The results were quantified using BD Bioscience Cell Quest Pro v.5.2.1. software (BD Bioscience). The cells appearing as a sub-G1 population (containing fragmented DNA) were considered to be apoptotic.

[12] = test system: LNCaP cells; assay: MTT assay, LNCaP cells; type: cell-based, human; settings: Homo sapiens, LNCaP; prostate cancer cells; 48 h of treatment; mean ± SD
Experimental: as §1, §2, §3

Cc1cc2c([nH]c3ccccc32)c2[n+]1-c1ccccc1C2=O.[Cl-] [Compound 19, 12,13-dihydro-6-methyl-13-oxopyrido[1,2-a:3,4-b’]diindol-5-ium chloride]
IC50 [1]: 3250 ± 795 nM | EC50 [2]: 380 ± 20 nM | IC50 [3]: 2030 ± 609 nM | IC50 [4]: 2180 nM | IC50 [5]: 2240 ± 890 nM | IC50 [6]: 1590 ± 514 nM | IC50 [7]: 2670 ± 140 nM | IC50 [8]: 1820 ± 387 nM | IC50 [9]: 2980 ± 930 nM | Selectivity index, IC50 (non-prostate) / IC50 (prostate) [10]: 1.00 | Selectivity index, IC50 (non-cancer) / IC50 (cancer) [10]: 1.23 | % of sub-G1 apoptotic cells (at IC50) [11]: 14.2±0.567% | IC50 [12]: 2240 ± 810 nM

O=C1c2ccccc2-[n+]2cc(-c3ccccc3)c3c([nH]c4ccccc43)c21.[Cl-] [Compound 16, 12,13-dihydro-7-phenyl-13-oxopyrido[1,2-a:3,4-b’]diindol-5-ium chloride]
IC50 [1]: 434 ± 21 nM | EC50 [2]: 1160 ± 20 nM | IC50 [3]: 172 ± 74 nM | IC50 [4]: 300 nM | IC50 [5]: 491 ± 68 nM | IC50 [6]: 185 ± 39 nM | IC50 [7]: 391 ± 84 nM | IC50 [8]: 538 ± 69 nM | IC50 [9]: 596 ± 110 nM | Selectivity index, IC50 (non-prostate) / IC50 (prostate) [10]: 1.73 | Selectivity index, IC50 (non-cancer) / IC50 (cancer) [10]: 1.73 | % of sub-G1 apoptotic cells (at IC50) [11]: 7±1.4% | IC50 [12]: 141 ± 58 nM

CC[N+](C)(CC)CCC[n+]1c(-c2ccccc2)c2cc(N)ccc2c2ccc(N)cc21 [PI, propidium iodide, reference compound]
EC50 [2]: 4 ± 0.5 nM

O=C1c2cc(Br)ccc2-[n+]2ccc3c([nH]c4ccccc43)c21.[Cl-] [Compound 4, 12,13-dihydro-2-bromo-13-oxopyrido[1,2-a:3,4-b’]diindol-5-ium chloride]
IC50 [1]: 820 ± 76 nM | EC50 [2]: 1360 ± 30 nM | IC50 [3]: 260 ± 54 nM | IC50 [4]: 1550 nM | IC50 [5]: 1900 ± 634 nM | IC50 [6]: 529 ± 69 nM | IC50 [7]: 3400 ± 1890 nM | IC50 [8]: 1100 ± 74 nM | IC50 [9]: 4270 ± 662 nM | Selectivity index, IC50 (non-prostate) / IC50 (prostate) [10]: 1.92 | Selectivity index, IC50 (non-cancer) / IC50 (cancer) [10]: 1.34 | % of sub-G1 apoptotic cells (at IC50) [11]: 8.83±0.7% | IC50 [12]: 349 ± 81 nM

O=C1c2ccc(Br)cc2-[n+]2ccc3c([nH]c4ccccc43)c21 [Compound 3, 3-bromofascaplysin]
IC50 [1]: 727 ± 60 nM | EC50 [2]: 700 ± 30 nM | IC50 [3]: 240 ± 41 nM | IC50 [4]: 3300 nM | IC50 [5]: 1510 ± 130 nM | IC50 [6]: 417 ± 60 nM | IC50 [7]: 10000 ± 6750 nM | IC50 [8]: 1010 ± 71 nM | IC50 [9]: 2300 ± 870 nM | Selectivity index, IC50 (non-prostate) / IC50 (prostate) [10]: 0.59 | Selectivity index, IC50 (non-cancer) / IC50 (cancer) [10]: 0.41 | % of sub-G1 apoptotic cells (at IC50) [11]: 23.3±9.19% | IC50 [12]: 1250 ± 380 nM

O=C1c2ccccc2-[n+]2ccc3c([nH]c4cc(Br)ccc43)c21 [Compound 5, 10-Bromofascaplysin]
IC50 [1]: 302 ± 90 nM | EC50 [2]: 2010 ± 10 nM | IC50 [3]: 482 ± 91 nM | IC50 [4]: 5010 nM | IC50 [5]: 1270 ± 206 nM | IC50 [6]: 500 ± 67 nM | IC50 [7]: 17800 ± 1940 nM | IC50 [8]: 649 ± 78 nM | IC50 [9]: 20300 ± 5400 nM | Selectivity index, IC50 (non-prostate) / IC50 (prostate) [10]: 2.57 | Selectivity index, IC50 (non-cancer) / IC50 (cancer) [10]: 1.41 | % of sub-G1 apoptotic cells (at IC50) [11]: 3.63±0.844% | IC50 [12]: 460 ± 76 nM
